We go through 23 compounds from patent US20080275032A1, “Pyridazinone compounds” (priority 2006, published 2008).

The assay has as its target HCV NS5B polymerase (Hepatitis C virus genotype 1b, UniProt P26663). Description: biochemical. The settings on record: HCV polymerase inhibition, 50 nM enzyme, 2 h at room temperature, FlashPlate [α-33P]GTP incorporation. The method, then:
NS5B Polymerase Inhibition Assay (IC50)
Compounds were tested for HCV polymerase inhibition. Assays were performed in a 96-well streptavidin-coated FlashPlate using 50 nM enzyme, 0.5 μCi of [α-^33P]GTP, 0.6 μM GTP, and 50 nM 5′biotinylated oligo (rG13)/poly rC in 20 mM Tris-HCl, pH 7.5, 5 mM MgCl2, 20 mM NaCl, 5 mM dithiothreitol, and 0.1 g/L BSA. The reaction was stopped by aspiration after 2 h at room temperature and the plate was washed several times. After washing, incorporated radioactivity was counted using a Microbeta scintillation counter.

Chain of HCV NS5B polymerase (P26663 2420-3010): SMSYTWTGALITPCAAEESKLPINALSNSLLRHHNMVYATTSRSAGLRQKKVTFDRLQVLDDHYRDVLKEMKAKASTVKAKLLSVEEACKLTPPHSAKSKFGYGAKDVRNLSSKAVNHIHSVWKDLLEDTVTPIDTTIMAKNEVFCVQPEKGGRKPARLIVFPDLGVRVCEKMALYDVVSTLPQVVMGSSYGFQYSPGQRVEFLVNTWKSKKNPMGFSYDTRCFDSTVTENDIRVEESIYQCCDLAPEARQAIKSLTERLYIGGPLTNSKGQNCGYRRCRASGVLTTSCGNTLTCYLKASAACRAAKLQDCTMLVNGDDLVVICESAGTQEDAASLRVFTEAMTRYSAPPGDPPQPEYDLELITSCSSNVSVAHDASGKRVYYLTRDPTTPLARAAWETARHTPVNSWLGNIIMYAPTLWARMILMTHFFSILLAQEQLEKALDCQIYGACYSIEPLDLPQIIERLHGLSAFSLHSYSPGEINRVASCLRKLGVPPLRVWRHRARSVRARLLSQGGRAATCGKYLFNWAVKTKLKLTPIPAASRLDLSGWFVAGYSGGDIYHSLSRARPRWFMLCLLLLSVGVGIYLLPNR

In general, IC50 refers to the concentration that inhibits the measured activity by half. A low value points to greater potency in that assay. In turn, `CC(C)CCn1nc(-c2cccs2)c(OCOC(=O)C(C)(C)C)c(C2=Nc3ccc(N(C)S(C)(=O)=O)cc3S(=O)(=O)N2)c1=O` [2,2-Dimethyl-propionic acid 5-[7-(methanesulfonyl-methyl-amino)-1,1-dioxo-1,2-dihydro-1λ^6-benzo[1,2,4]thiadiazin-3-yl]-1-(3-methyl-butyl)-6-oxo-3-thiophen-2-yl-1,6-dihydro-pyridazin-4-yloxymethyl ester] displayed an IC50 of 1000 to 10000 nM.

For the compound `CC(C)(C)CCn1nc(-c2cccs2)c(O)c(C2=NS(=O)(=O)c3cc(N(COC(=O)C(C)(C)C)S(C)(=O)=O)ccc3N2)c1=O` [2,2-Dimethyl-propionic acid ({3-[2-(3,3-dimethyl-butyl)-5-hydroxy-3-oxo-6-thiophen-2-yl-2,3-dihydro-pyridazin-4-yl]-1,1-dioxo-1,2-dihydro-1λ^6-benzo[1,2,4]thiadiazin-7-yl}-methanesulfonyl-amino)-methylester], the IC50 is 100 to 1000 nM.

Consider `CC(C)CCn1nc(-c2cccs2)c(O)c(C2=Nc3ccc(N(COC(=O)C(C)(C)C)S(C)(=O)=O)cc3S(=O)(=O)N2)c1=O` [2,2-Dimethyl-propionic acid ({3-[5-hydroxy-2-(3-methyl-butyl)-3-oxo-6-thiophen-2-yl-2,3-dihydro-pyridazin-4-yl]-1,1-dioxo-1,2-dihydro-1λ^6-benzo[1,2,4]thiadiazin-7-yl}-methanesulfonyl-amino)-methylester], for which the IC50 is 100 to 1000 nM.

Consider `CC(C)(C)CCn1nc(-c2cccs2)c(O)c(C2=Nc3ccc(NS(=O)(=O)CCN)cc3S(=O)(=O)N2)c1=O` [2-Amino-ethanesulfonic acid {3-[2-(3,3-dimethyl-butyl)-5-hydroxy-3-oxo-6-thiophen-2-yl-2,3-dihydro-pyridazin-4-yl]-1,1-dioxo-1,2-dihydro-1λ^6-benzo[1,2,4]thiadiazin-7-yl}-amide], for which the IC50 was less than 100 nM.

On to `CCN(CC)CCS(=O)(=O)Nc1ccc2c(c1)S(=O)(=O)NC(c1c(O)c(-c3cccs3)nn(CCC(C)(C)C)c1=O)=N2` [2-Diethylamino-ethanesulfonicacid {3-[2-(3,3-dimethyl-butyl)-5-hydroxy-3-oxo-6-thiophen-2-yl-2,3-dihydro-pyridazin-4-yl]-1,1-dioxo-1,4-dihydro-1λ^6-benzo[1,2,4]thiadiazin-7-yl}-amide], for which the half-inhibitory concentration (IC50) was in the range of 100 to 1000 nM.

Compound `CC(C)CCn1nc(-c2cncs2)c(O)c(C2=Nc3ccc(NS(=O)(=O)C(C)(C)C)cc3S(=O)(=O)N2)c1=O` [2-Methyl-propane-2-sulfonic acid{3-[5-hydroxy-2-(3-methyl-butyl)-3-oxo-6-thiazol-5-yl-2,3-dihydro-pyridazin-4-yl]-1,1-dioxo-1,2-dihydro-1λ^6-benzo[1,2,4]thiadiazin-7-yl}-amide] displayed a half-maximal inhibitory concentration (IC50) of less than 100 nM.

The compound `CC(C)CCn1nc(-c2cccs2)c(O)c(C2=Nc3ccc(NCCS(N)(=O)=O)cc3S(=O)(=O)N2)c1=O` [2-{3-[5-Hydroxy-2-(3-methyl-butyl)-3-oxo-6-thiophen-2-yl-2,3-dihydro-pyridazin-4-yl]-1,1-dioxo-1,2-dihydro-1λ^6-benzo[1,2,4]thiadiazin-7-ylamino}-ethanesulfonic acid amide] gave an IC50 of 100 to 1000 nM.

Turning to `CC(C)CCn1nc(-c2cccs2)c(O)c(C2=NS(=O)(=O)c3cc(N4CCCS4(=O)=O)ccc3N2)c1=O` [4-[7-(1,1-Dioxo-1l6-isothiazolidin-2-yl)-1,1-dioxo-1,2-dihydro-1λ^6-benzo[1,2,4]thiadiazin-3-yl]-5-hydroxy-2-(3-methyl-butyl)-6-thiophen-2-yl-2H-pyridazin-3-one], the 50% inhibitory concentration (IC50) lay in the range of 100 to 1000 nM.

On to `CC(C)CCn1nc(-c2cccs2)c(O)c(C2=Nc3ccc(C4CCCS4(=O)=O)cc3S(=O)(=O)N2)c1=O` (centres unmarked) [4-[7-(1,1-Dioxo-tetrahydro-1l6-thiophen-2-yl)-1,1-dioxo-1,2-dihydro-1λ^6-benzo[1,2,4]thiadiazin-3-yl]-5-hydroxy-2-(3-methyl-butyl)-6-thiophen-2-yl-2H-pyridazin-3-one], for which the half-inhibitory concentration (IC50) was 100 to 1000 nM.

Compound `CC(C)CCn1nc(-c2cccs2)c(O)c(C2=NS(=O)(=O)c3cc(CCS(C)(=O)=O)ccc3N2)c1=O` [5-Hydroxy-4-[7-(2-methanesulfonyl-ethyl)-1,1-dioxo-1,2-dihydro-1λ^6-benzo[1,2,4]thiadiazin-3-yl]-2-(3-methyl-butyl)-6-thiophen-2-yl-2H-pyridazin-3-one] gave a concentration for half-maximal inhibition (IC50) of 100 to 1000 nM.

As for `CC(C)CCn1nc(-c2cccs2)c(O)c(C2=Nc3ccc(/C=C/S(C)(=O)=O)cc3S(=O)(=O)N2)c1=O` [5-Hydroxy-4-[7-(2-methanesulfonyl-vinyl)-1,1-dioxo-1,2-dihydro-1λ^6-benzo[1,2,4]thiadiazin-3-yl]-2-(3-methyl-butyl)-6-thiophen-2-yl-2H-pyridazin-3-one], the IC50 lay in the range of 100 to 1000 nM.

Compound `O=c1c(C2=Nc3ccc(NS(=O)(=O)C4CC4)cc3S(=O)(=O)N2)c(O)c(-c2cccs2)nn1CCC1CC1` [Cyclopropanesulfonic acid {3-[2-(2-cyclopropyl-ethyl)-5-hydroxy-3-oxo-6-thiophen-2-yl-2,3-dihydro-pyridazin-4-yl]-1,1-dioxo-1,2-dihydro-1λ^6-benzo[1,2,4]thiadiazin-7-yl}-amide] gave a 50% inhibitory concentration (IC50) of less than 100 nM.

For `O=c1c(C2=Nc3ccc(NS(=O)(=O)C4CC4)cc3S(=O)(=O)N2)c(O)c(-c2cccs2)nn1Cc1ccc(F)c(Cl)c1` [Cyclopropanesulfonic acid {3-[2-(3-chloro-4-fluoro-benzyl)-5-hydroxy-3-oxo-6-thiophen-2-yl-2,3-dihydro-pyridazin-4-yl]-1,1-dioxo-1,2-dihydro-1λ^6-benzo[1,2,4]thiadiazin-7-yl}-amide], the half-maximal inhibitory concentration (IC50) was in the range of 100 to 1000 nM.

Take `CC(C)CCn1nc(-c2cncs2)c(O)c(C2=Nc3ccc(NS(=O)(=O)C4CC4)cc3S(=O)(=O)N2)c1=O` [Cyclopropanesulfonic acid {3-[5-hydroxy-2-(3-methyl-butyl)-3-oxo-6-thiazol-5-yl-2,3-dihydro-pyridazin-4-yl]-1,1-dioxo-1,2-dihydro-1λ^6-benzo[1,2,4]thiadiazin-7-yl}-amide]: the IC50 was less than 100 nM.

In the case of `CC(C)CCn1nc(C(C)(C)C)c(O)c(C2=Nc3ccc(NS(=O)(=O)C4CC4)cc3S(=O)(=O)N2)c1=O` [Cyclopropanesulfonic acid {3-[6-tert-butyl-5-hydroxy-2-(3-methyl-butyl)-3-oxo-2,3-dihydro-pyridazin-4-yl]-1,1-dioxo-1,2-dihydro-1λ^6-benzo[1,2,4]thiadiazin-7-yl}-amide], the half-inhibitory concentration (IC50) lay in the range of 1000 to 10000 nM.

Compound `CCS(=O)(=O)Nc1ccc2c(c1)S(=O)(=O)NC(c1c(O)c(-c3cncs3)nn(CCC(C)C)c1=O)=N2` [Ethanesulfonic acid {3-[5-hydroxy-2-(3-methyl-butyl)-3-oxo-6-thiazol-5-yl-2,3-dihydro-pyridazin-4-yl]-1,1-dioxo-1,2-dihydro-1λ^6-benzo[1,2,4]thiadiazin-7-yl}-amide] displayed a half-maximal inhibitory concentration (IC50) of less than 100 nM.

For `CCS(=O)(=O)Nc1ccc2c(c1)S(=O)(=O)NC(c1c(O)c(-c3cccs3)nn(CCC(C)C)c1=O)=N2` [Ethanesulfonic acid {3-[5-hydroxy-2-(3-methyl-butyl)-3-oxo-6-thiophen-2-yl-2,3-dihydro-pyridazin-4-yl]-1,1-dioxo-1,2-dihydro-1λ^6-benzo[1,2,4]thiadiazin-7-yl}-amide], the IC50 was less than 100 nM.

For `C=CS(=O)(=O)N(C)c1ccc2c(c1)S(=O)(=O)NC(c1c(O)c(-c3cccs3)nn(CCC(C)(C)C)c1=O)=N2` [Ethenesulfonic acid {3-[2-(3,3-dimethyl-butyl)-5-hydroxy-3-oxo-6-thiophen-2-yl-2,3-dihydro-pyridazin-4-yl]-1,1-dioxo-1,2-dihydro-1λ^6-benzo[1,2,4]thiadiazin-7-yl}-methyl-amide], the IC50 was in the range of 1000 to 10000 nM.

Turning to `CC(C)CCn1nc(-c2cccs2)c(OC(=O)C(C)C)c(C2=Nc3ccc(N(C)S(C)(=O)=O)cc3S(=O)(=O)N2)c1=O` [Isobutyric acid 5-[7-(methanesulfonyl-methyl-amino)-1,1-dioxo-1,2-dihydro-1λ^6-benzo[1,2,4]thiadiazin-3-yl]-1-(3-methyl-butyl)-6-oxo-3-thiophen-2-yl-1,6-dihydro-pyridazin-4-yl ester], the IC50 lay within 1000 to 10000 nM.

Turning to `CC(C)CCn1nc(-c2cncs2)c(O)c(C2=Nc3ccc(N(CCO)S(C)(=O)=O)cc3S(=O)(=O)N2)c1=O` [N-(2-Hydroxy-ethyl)-N-{3-[5-hydroxy-2-(3-methyl-butyl)-3-oxo-6-thiazol-5-yl-2,3-dihydro-pyridazin-4-yl]-1,1-dioxo-1,2-dihydro-1λ^6-benzo[1,2,4]thiadiazin-7-yl}-methanesulfonamide], the IC50 was 100 to 1000 nM.

For `CC(C)CCn1nc(-c2cccs2)c(O)c(C2=Nc3ccc(N(C(=O)OC(C)C)S(C)(=O)=O)cc3S(=O)(=O)N2)c1=O` [N-({3-[5-hydroxy-2-(3-methyl-butyl)-3-oxo-6-thiophen-2-yl-2,3-dihydro-pyridazin-4-yl]-1,1-dioxo-1,2-dihydro-1λ^6-benzo[1,2,4]thiadiazin-7-yl}-N-methanesulfonyl)-isopropylcarbamate], the half-inhibitory concentration (IC50) lay in the range of 100 to 1000 nM.

In the case of `CC(C)CCn1nc(-c2cccs2)c(O)c(C2=Nc3ccc(N(COCc4ccccc4)S(C)(=O)=O)cc3S(=O)(=O)N2)c1=O` [N-Benzyloxymethyl-N-{3-[5-hydroxy-2-(3-methyl-butyl)-3-oxo-6-thiophen-2-yl-2,3-dihydro-pyridazin-4-yl]-1,1-dioxo-1,2-dihydro-1λ^6-benzo[1,2,4]thiadiazin-7-yl}-methanesulfonamide], the IC50 lay within 1000 to 10000 nM.

Regarding `CS(=O)(=O)Nc1ccc2c(c1)S(=O)(=O)N=C(c1c(O)c(-c3cccs3)nn(Cc3ccccc3)c1=O)N2` [N-[3-(2-Benzyl-5-hydroxy-3-oxo-6-thiophen-2-yl-2,3-dihydro-pyridazin-4-yl)-1,1-dioxo-1,2-dihydro-1λ^6-benzo[1,2,4]thiadiazin-7-yl]-methanesulfonamide], the IC50 is less than 100 nM.
